Broadly, the GI50 is the concentration at which growth is held to half of that of the control. In general, TGI refers to the concentration giving total growth inhibition. Lower therefore signals greater sensitivity of the cells.

Among the data in PubChem BioAssay (NCI) are GI50 and TGI values, retold here.

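In this assay, cells in 96-well plates receive the compound at five concentrations for 48 hours. Endpoints are linearly interpolated between the surrounding concentrations. The concentration for 50% growth inhibition is given as GI50. At the TGI there is no net growth.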

Test systems include HOP-62 NSCLC; SK-MEL-28 melanoma; SK-MEL-5 melanoma; SNB-75 CNS; NCI-H522 lung; IGROV1 ovarian; UACC-62 melanoma; HS 578T breast; HCC-2998 colon; OVCAR-4 ovarian.
Test in all cases: DTP human tumour cell line panel, 48 h

Regarding `O=c1nc(Nc2cccc(Cl)c2)oc2cc(Cl)oc(=O)c12`, the GI50 is 11 µM in the assay with HOP-62 NSCLC; 8.76 µM with SK-MEL-28 melanoma; 18.2 µM in the assay with SK-MEL-5 melanoma; 6.96 µM in the assay on SNB-75 CNS; 2.45 µM in the assay on NCI-H522 lung; 5.13 µM with IGROV1 ovarian. Also, the GI50 with UACC-62 melanoma was 5.79 µM; in the assay with HS 578T breast it was 2.81 µM; in the assay on HCC-2998 colon, 13.4 µM; in the assay on OVCAR-4 ovarian, 10.9 µM. The TGI came to 31.4 µM in the assay with HOP-62 NSCLC; 22.7 µM with SK-MEL-28 melanoma; 54.5 µM with SK-MEL-5 melanoma; 21.4 µM in the assay on SNB-75 CNS; 8.16 µM in the assay with NCI-H522 lung; 21.1 µM in the assay with IGROV1 ovarian. For the same compound, the TGI in the assay on UACC-62 melanoma was 21.3 µM; in the assay with HS 578T breast, 17.4 µM; in the assay with HCC-2998 colon, 27.5 µM; in the assay on OVCAR-4 ovarian, over 100 µM.
As for `CCOc1cc2c(NCCCN(CCO)CCO)ncnc2c(OCC)c1OCC`, the TGI with HOP-62 NSCLC, with SK-MEL-28 melanoma, in the assay on SK-MEL-5 melanoma, in the assay on SNB-75 CNS, in the assay on NCI-H522 lung and in the assay on IGROV1 ovarian was over 100 µM each time. Also, the TGI with UACC-62 melanoma, in the assay on HS 578T breast, with HCC-2998 colon and in the assay with OVCAR-4 ovarian was over 100 µM each time.
`N=C(N=C(N)N)N1CCN(c2ccncc2)CC1`: the GI50 in the assay with HOP-62 NSCLC, with SK-MEL-28 melanoma, in the assay on SK-MEL-5 melanoma, in the assay with SNB-75 CNS, in the assay on NCI-H522 lung and in the assay with IGROV1 ovarian was over 1000 µM each time. The GI50 in the assay with UACC-62 melanoma was over 1000 µM; in the assay with HS 578T breast it was 913 µM; in the assay on HCC-2998 colon, over 1000 µM; in the assay on OVCAR-4 ovarian, over 1000 µM. For the same compound, the TGI in the assay on HOP-62 NSCLC, with SK-MEL-28 melanoma, with SK-MEL-5 melanoma, in the assay with SNB-75 CNS, with NCI-H522 lung and in the assay with IGROV1 ovarian was over 1000 µM throughout. The TGI with UACC-62 melanoma, with HS 578T breast, in the assay with HCC-2998 colon and with OVCAR-4 ovarian was over 1000 µM throughout.
In the case of `Cn1c(=O)c(Oc2ccccc2F)cc2cnc(NC3CCOCC3)nc21`, the GI50 in the assay on HOP-62 NSCLC is over 25 µM; with SK-MEL-28 melanoma, over 25 µM; in the assay with SK-MEL-5 melanoma it was over 25 µM; in the assay with SNB-75 CNS, over 19.8 µM; in the assay on NCI-H522 lung, over 25 µM; in the assay on IGROV1 ovarian, over 25 µM. Also, the GI50 in the assay on UACC-62 melanoma, in the assay with HS 578T breast, in the assay on HCC-2998 colon and in the assay with OVCAR-4 ovarian was over 25 µM in each case. Further, the TGI in the assay on HOP-62 NSCLC, in the assay on SK-MEL-28 melanoma, in the assay with SK-MEL-5 melanoma, in the assay with SNB-75 CNS, in the assay on NCI-H522 lung and in the assay with IGROV1 ovarian was over 25 µM each time. Further, the TGI in the assay on UACC-62 melanoma, in the assay with HS 578T breast, in the assay with HCC-2998 colon and in the assay on OVCAR-4 ovarian was over 25 µM throughout.
For the compound `CCN1C(=S)N(CC)C2C1NC(=S)N2/N=C/C=C/c1ccccc1` (stereo not given), the GI50 in the assay on HOP-62 NSCLC is 2.26 µM; in the assay on SK-MEL-28 melanoma, 4.81 µM; with SK-MEL-5 melanoma, 1.19 µM; with SNB-75 CNS, 1.09 µM; with NCI-H522 lung it was 0.739 µM; with IGROV1 ovarian, 2.15 µM. Further, the GI50 was 1.37 µM in the assay on UACC-62 melanoma, 2.11 µM in the assay with HS 578T breast, 2.84 µM in the assay with HCC-2998 colon and 5.4 µM with OVCAR-4 ovarian. The TGI in the assay with HOP-62 NSCLC worked out at 15.7 µM; with SK-MEL-28 melanoma it was 21 µM; in the assay with SK-MEL-5 melanoma, 10.7 µM; in the assay with SNB-75 CNS it was 5.65 µM; in the assay with NCI-H522 lung it was 3.7 µM; in the assay with IGROV1 ovarian, 16.3 µM. Also, the TGI was found to be 14.9 µM with UACC-62 melanoma, 8.96 µM in the assay with HS 578T breast, 16.9 µM in the assay on HCC-2998 colon and 19.6 µM in the assay on OVCAR-4 ovarian.
Take `CC1=C[C@H]2c3c(c(O)c(O)c4oc5ccccc5c(=O)c34)[C@H](c3cc(O)c(O)c4oc5ccccc5c(=O)c34)[C@H]2C(C)(C)C1`: the GI50 in the assay on HOP-62 NSCLC was 0.978 µM; with SK-MEL-28 melanoma, 1.86 µM; in the assay with SK-MEL-5 melanoma, 1.17 µM; in the assay with SNB-75 CNS it was 0.637 µM; in the assay on NCI-H522 lung, 1.77 µM; in the assay on IGROV1 ovarian, 1.05 µM. For the same compound, the GI50 in the assay with UACC-62 melanoma is 0.707 µM; in the assay with HS 578T breast, 0.379 µM; in the assay on HCC-2998 colon, 1.87 µM; in the assay with OVCAR-4 ovarian, 0.786 µM. Besides, the TGI in the assay with HOP-62 NSCLC amounted to 8.35 µM; in the assay on SK-MEL-28 melanoma it was 13.3 µM; in the assay with SK-MEL-5 melanoma, 2.51 µM; with SNB-75 CNS, 6.59 µM; with NCI-H522 lung, 5.57 µM; in the assay with IGROV1 ovarian, 8.09 µM. Besides, the TGI in the assay on UACC-62 melanoma was determined as 2.33 µM; in the assay on HS 578T breast, 9.89 µM; in the assay on HCC-2998 colon it was 6.03 µM; in the assay on OVCAR-4 ovarian it was 20.2 µM.
In the case of `Cc1nc2sc(C(=O)Nc3cccc4ccccc34)c(N)c2cc1C(=O)c1ccccc1`, the GI50 with HOP-62 NSCLC is 2.53 µM; in the assay with SK-MEL-28 melanoma, 4.95 µM; in the assay with SK-MEL-5 melanoma, 1.92 µM; in the assay with SNB-75 CNS it was 1.04 µM; in the assay on NCI-H522 lung it was 1.52 µM; with IGROV1 ovarian, 1.8 µM. In addition, the GI50 was 2.42 µM in the assay with UACC-62 melanoma, 1.3 µM in the assay with HS 578T breast, 1.52 µM in the assay with HCC-2998 colon and 3.21 µM with OVCAR-4 ovarian. Further, the TGI with HOP-62 NSCLC was over 50 µM; with SK-MEL-28 melanoma it was over 50 µM; in the assay with SK-MEL-5 melanoma, 12.4 µM; in the assay on SNB-75 CNS it was over 50 µM; in the assay with NCI-H522 lung, over 50 µM; with IGROV1 ovarian, over 50 µM. Besides, the TGI with UACC-62 melanoma, in the assay on HS 578T breast, with HCC-2998 colon and with OVCAR-4 ovarian was over 50 µM each time.
